Assay results published in patent publication US20250235460A1, “COMBINATION THERAPY USING GLUCOSE-DEPENDENT INSULINOTROPIC POLYPEPTIDE RECEPTOR ANTAGONIST COMPOUNDS AND GLP-1 RECEPTOR AGONIST COMPOUNDS” (Pfizer Inc., priority 2024, published 2025).

Biological target: human GLP-1R (Homo sapiens, UniProt P43220, G168S)
Experiment: CHO GLP-1R Clone H6 cAMP HTRF agonist assay (Assay 1, high receptor density)
Type: cell-based
Details: for EC50: CHO GLP-1R clone H6, cAMP HTRF, geometric mean; for Emax: CHO GLP-1R clone H6, arithmetic mean, relative to saturating GLP-1 (1 μM), read-out: Assay 1 Emax (%)
Description: In Table 5 and Table 6, assay data are presented to two (2) significant figures as the geometric mean (EC50s) and arithmetic mean (Emax) based on the number of replicates listed (Number). A blank cell means there was no data for that Example or the Emax was not calculated.

Chain of human GLP-1R (P43220 24-463 G168S): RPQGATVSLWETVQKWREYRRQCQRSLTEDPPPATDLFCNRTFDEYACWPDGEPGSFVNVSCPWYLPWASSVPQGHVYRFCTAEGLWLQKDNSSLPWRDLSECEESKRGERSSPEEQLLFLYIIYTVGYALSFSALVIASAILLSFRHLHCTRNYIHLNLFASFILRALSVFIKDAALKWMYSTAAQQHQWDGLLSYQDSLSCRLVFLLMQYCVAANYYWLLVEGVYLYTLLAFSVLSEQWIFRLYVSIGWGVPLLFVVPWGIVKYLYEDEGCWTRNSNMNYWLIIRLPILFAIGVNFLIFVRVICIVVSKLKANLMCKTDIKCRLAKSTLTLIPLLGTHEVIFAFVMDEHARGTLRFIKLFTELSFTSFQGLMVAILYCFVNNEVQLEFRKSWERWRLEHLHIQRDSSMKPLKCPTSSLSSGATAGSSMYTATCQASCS

`COCCn1c(CN2CCN(c3nc(OCc4ccc(Cl)cc4F)ccc3F)CC2)nc2ccc(C(=O)O)cc21` [Compound 179B, 2-[(4-{6-[(4-chloro-2-fluorobenzyl)oxy]-3-fluoropyridin-2-yl}piperazin-1-yl)methyl]-1-(2-methoxyethyl)-1H-benzimidazole-6-carboxylic acid] gave an EC50 of 1600 nM and an Emax of 83%.
For `COCCn1c(CN2CCN(c3nc(OCc4ccc(Cl)cc4F)ccc3F)C[C@@H]2C)nc2ccc(C(=O)O)cc21` [Compound 180B, 2-{[(2S)-4-{6-[(4-chloro-2-fluorobenzyl)oxy]-3-fluoropyridin-2-yl}-2-methylpiperazin-1-yl]methyl}-1-(2-methoxyethyl)-1H-benzimidazole-6-carboxylic acid], the EC50 was over 17000 nM and the Emax was 100%.
`COCCn1c(CN2CCC(c3cccc(OCc4ccccc4)n3)CC2)nc2ccc(C(=O)O)cc21` [Compound 181B, 2-({4-[6-(benzyloxy)pyridin-2-yl]piperidin-1-yl}methyl)-1-(2-methoxyethyl)-1H-benzimidazole-6-carboxylic acid] was tested, and the EC50 was 170 nM and the Emax was 68%.
`COCCn1c(CN2CCN(c3cccc(OCc4ccc(Cl)cc4F)n3)C(C)(C)C2)nc2ccc(C(=O)O)cc21` [Compound 182B, 2-[(4-{6-[(4-chloro-2-fluorobenzyl)oxy]pyridin-2-yl}-3,3-dimethylpiperazin-1-yl)methyl]-1-(2-methoxyethyl)-1H-benzimidazole-6-carboxylic acid] was tested, and the EC50 was 1800 nM and the Emax was 93%.
In the case of `Cn1cncc1Cn1c(CN2CCC(c3cccc(OCc4ccc(F)cc4F)n3)CC2)nc2ccc(C(=O)O)cc21` [Compound 186B, 2-[(4-{6-[(2,4-difluorobenzyl)oxy]pyridin-2-yl}piperidin-1-yl)methyl]-1-[(1-methyl-1H-imidazol-5-yl)methyl]-1H-benzimidazole-6-carboxylic acid], the EC50 is reported as 1700 nM and the Emax is reported as 82%.
Work on `O=C(O)c1cnc2nc(CN3CCC(c4cccc(OCc5ccc(Cl)cc5F)n4)CC3)n(CC(F)(F)F)c2c1` [Compound 212B, 2-[(4-{6-[(4-chloro-2-fluorobenzyl)oxy]pyridin-2-yl}piperidin-1-yl)methyl]-1-(2,2,2-trifluoroethyl)-1H-imidazo[4,5-b]pyridine-6-carboxylic acid] yielded an EC50 of 190 nM and an Emax of 71%.
`COCCn1c(CN2CCC(c3cccc(OCc4ccc(Cl)cc4F)n3)CC2)nc2ccc(C(=O)O)nc21` [Compound 213B, 2-[(4-{6-[(4-chloro-2-fluorobenzyl)oxy]pyridin-2-yl}piperidin-1-yl)methyl]-3-(2-methoxyethyl)-3H-imidazo[4,5-b]pyridine-5-carboxylic acid] showed an EC50 of 390 nM and an Emax of 82%.
With `N#Cc1ccc(COc2cccc(C3CCN(Cc4nc5ccc(C(=O)O)nc5n4Cc4ncco4)CC3)n2)c(F)c1` [Compound 214B, 2-[(4-{6-[(4-cyano-2-fluorobenzyl)oxy]pyridin-2-yl}piperidin-1-yl)methyl]-3-(1,3-oxazol-2-ylmethyl)-3H-imidazo[4,5-b]pyridine-5-carboxylic acid] the Emax was 71%.
With `Cn1c(CN2CCC(c3cccc(OCc4ccc(C(F)(F)F)cc4F)n3)CC2)nc2ccc(C(=O)O)cc21` [Compound 222B, 2-{[4-(6-{[2-fluoro-4-(trifluoromethyl)benzyl]oxy}pyridin-2-yl)piperidin-1-yl]methyl}-1-methyl-1H-benzimidazole-6-carboxylic acid] the EC50 was 130 nM and the Emax was 72%.
`Cn1c(CN2CCC(c3cccc(OCc4ccc(F)cc4F)n3)CC2)nc2ccc(C(=O)O)cc21` [Compound 223B, 2-[(4-{6-[(2,4-difluorobenzyl)oxy]pyridin-2-yl}piperidin-1-yl)methyl]-1-methyl-1H-benzimidazole-6-carboxylic acid] showed an EC50 of 170 nM and an Emax of 69%.
In the case of `Cn1c(CN2CCC(c3cccc(OCc4c(F)cccc4F)n3)CC2)nc2ccc(C(=O)O)cc21` [Compound 224B, 2-[(4-{6-[(2,6-difluorobenzyl)oxy]pyridin-2-yl}piperidin-1-yl)methyl]-1-methyl-1H-benzimidazole-6-carboxylic acid], the EC50 is reported as 1200 nM and the Emax is reported as 53%.
Work on `Cc1ccccc1COc1cccc(C2CCN(Cc3nc4ccc(C(=O)O)cc4n3C)CC2)n1` [Compound 230B, 1-methyl-2-[(4-{6-[(2-methylbenzyl)oxy]pyridin-2-yl}piperidin-1-yl)methyl]-1H-benzimidazole-6-carboxylic acid] yielded an EC50 of 1700 nM and an Emax of 80%.
Work on `Cn1c(CN2CCC(c3cccc(OCc4ccc(C#N)cc4)n3)CC2)nc2ccc(C(=O)O)cc21` [Compound 234B, 2-[(4-{6-[(4-cyanobenzyl)oxy]pyridin-2-yl}piperidin-1-yl)methyl]-1-methyl-1H-benzimidazole-6-carboxylic acid] yielded an EC50 of 290 nM and an Emax of 64%.
Compound `CC1(C)CC(Cn2c(CN3CCC(c4cccc(OCc5ccc(Cl)cc5F)n4)CC3)nc3ccc(C(=O)O)cc32)O1` (stereo not shown) [Compound 235B, 2-[(4-{6-[(4-chloro-2-fluorobenzyl)oxy]pyridin-2-yl}piperidin-1-yl)methyl]-1-[(4,4-dimethyloxetan-2-yl)methyl]-1H-benzimidazole-6-carboxylic acid] has an EC50 of 390 nM and an Emax of 72%.
`CC(C)n1cnnc1Cn1c(CN2CCC(c3cccc(OCc4ccc(Cl)cc4F)n3)CC2)nc2ccc(C(=O)O)cc21` [Compound 236B, 2-[(4-{6-[(4-chloro-2-fluorobenzyl)oxy]pyridin-2-yl}piperidin-1-yl)methyl]-1-{[4-(propan-2-yl)-4H-1,2,4-triazol-3-yl]methyl}-1H-benzimidazole-6-carboxylic acid] showed an EC50 of 1300 nM and an Emax of 79%.
Work on `CCc1noc(Cn2c(CN3CCC(c4cccc(OCc5ccc(Cl)cc5F)n4)CC3)nc3ccc(C(=O)O)cc32)n1` [Compound 264B, 2-[(4-{6-[(4-chloro-2-fluorobenzyl)oxy]pyridin-2-yl}piperidin-1-yl)methyl]-1-[(3-ethyl-1,2,4-oxadiazol-5-yl)methyl]-1H-benzimidazole-6-carboxylic acid] yielded an EC50 of over 10000 nM and an Emax of 85%.
`CC1(Cn2c(CN3CCC(c4cccc(OCc5ccc(Cl)cc5F)n4)CC3)nc3ccc(C(=O)O)cc32)CCO1` (stereo not shown) [Compound 265B, 2-[(4-{6-[(4-chloro-2-fluorobenzyl)oxy]pyridin-2-yl}piperidin-1-yl)methyl]-1-[(2-methyloxetan-2-yl)methyl]-1H-benzimidazole-6-carboxylic acid] gave an EC50 of over 15000 nM and an Emax of 100%.
Compound `C[C@H]1CN(c2cccc(OCc3ccc(C#N)cc3F)n2)CCN1Cc1nc2ccc(C(=O)O)cc2n1C[C@H]1CCOC1` [Compound 267B, 2-{[(2S)-4-{6-[(4-cyano-2-fluorobenzyl)oxy]pyridin-2-yl}-2-methylpiperazin-1-yl]methyl}-1-[(3R)-tetrahydrofuran-3-ylmethyl]-1H-benzimidazole-6-carboxylic acid] has an EC50 of over 19000 nM and an Emax of 100%.
Compound `O=C(O)c1ccc2nc(CN3CCC(c4cccc(OCc5ccc(Cl)cc5F)n4)CC3)n([C@@H]3CCOC3)c2c1` [Compound 268B, 2-[(4-{6-[(4-chloro-2-fluorobenzyl)oxy]pyridin-2-yl}piperidin-1-yl)methyl]-1-[(3R)-tetrahydrofuran-3-yl]-1H-benzimidazole-6-carboxylic acid] has an EC50 of over 20000 nM.
For `CCn1cncc1Cn1c(CN2CCN(c3cccc(OCc4ccc(C#N)cc4F)n3)C[C@@H]2C)nc2ccc(C(=O)O)cc21` [Compound 269B, 2-{[(2S)-4-{6-[(4-cyano-2-fluorobenzyl)oxy]pyridin-2-yl}-2-methylpiperazin-1-yl]methyl}-1-[(1-ethyl-1H-imidazol-5-yl)methyl]-1H-benzimidazole-6-carboxylic acid], the EC50 was over 20000 nM.
`O=C(O)c1ccc2nc(CN3CCC(c4cccc(OCc5ccc(Cl)cc5F)n4)CC3)n(Cc3cnoc3)c2c1` [Compound 270B, 2-[(4-{6-[(4-chloro-2-fluorobenzyl)oxy]pyridin-2-yl}piperidin-1-yl)methyl]-1-(1,2-oxazol-4-ylmethyl)-1H-benzimidazole-6-carboxylic acid] showed an EC50 of over 20000 nM.
Work on `O=C(O)c1ccc2nc(CN3CCC(c4cccc(OCc5ccc(Cl)cc5F)n4)CC3)n(Cc3ncon3)c2c1` [Compound 271B, 2-[(4-{6-[(4-chloro-2-fluorobenzyl)oxy]pyridin-2-yl}piperidin-1-yl)methyl]-1-(1,2,4-oxadiazol-3-ylmethyl)-1H-benzimidazole-6-carboxylic acid] yielded an EC50 of over 20000 nM.
Compound `O=C(O)c1ccc2nc(CN3CCC(c4cccc(OCc5ccc(Cl)cc5F)n4)CC3)n([C@H]3CCOC3)c2c1` [Compound 272B, 2-[(4-{6-[(4-chloro-2-fluorobenzyl)oxy]pyridin-2-yl}piperidin-1-yl)methyl]-1-[(3S)-tetrahydrofuran-3-yl]-1H-benzimidazole-6-carboxylic acid] has an EC50 of over 20000 nM.
In the case of `CCn1cncc1Cn1c(CN2CCC(c3cccc(OCc4ccc(C#N)cc4F)n3)CC2)nc2ccc(C(=O)O)nc21` [Compound 273B, 2-[(4-{6-[(4-cyano-2-fluorobenzyl)oxy]pyridin-2-yl}piperidin-1-yl)methyl]-3-[(1-ethyl-1H-imidazol-5-yl)methyl]-3H-imidazo[4,5-b]pyridine-5-carboxylic acid], the EC50 is reported as over 20000 nM.
In the case of `Cn1cncc1Cn1c(CN2CCC(c3cccc(OCc4ccc(C#N)cc4F)n3)CC2)nc2ccc(C(=O)O)nc21` [Compound 274B, 2-[(4-{6-[(4-cyano-2-fluorobenzyl)oxy]pyridin-2-yl}piperidin-1-yl)methyl]-3-[(1-methyl-1H-imidazol-5-yl)methyl]-3H-imidazo[4,5-b]pyridine-5-carboxylic acid], the EC50 is reported as over 20000 nM.
Compound `Cn1cnc(CCn2c(CN3CCC(c4cccc(OCc5ccc(Cl)cc5F)n4)CC3)nc3ccc(C(=O)O)cc32)c1` [Compound 276B, 2-[(4-{6-[(4-chloro-2-fluorobenzyl)oxy]pyridin-2-yl}piperidin-1-yl)methyl]-1-[2-(1-methyl-1H-imidazol-4-yl)ethyl]-1H-benzimidazole-6-carboxylic acid] has an EC50 of over 20000 nM.
